Measurements: ChEMBL document CHEMBL1143332, “Syntheses of tricyclic pyrones and pyridinones and protection of Abeta-peptide induced MC65 neuronal cell death” (Bioorg Med Chem Lett, 2009)
pEC50: −log10 of the molar value. The source made the active and inactive calls. No cut-off for these calls is given here.

Legend:
[1] = (§1) Cell protective activity in human MC65 cells assessed as protection against amyloid beta precursor protein C99-induced neuronal cell death after 3 days by MTT assay; format: functional, cell-based; settings: 72 h
neuronal = assay: as §1; format: functional, cell-based

Compound	pEC50 [1]	Activity (neuronal)
Cc1cc2c(c(=O)o1)C=C1CC[C@H]([C@@H](C)Cn3cnc4c(Cl)ncnc43)C[C@@H]1O2	6.03	–
Cc1cc2c(c(=O)o1)C=C1CC[C@H]([C@@H](C)Cn3cc(C#N)c(N)n3)C[C@@H]1O2	5.08	–
Cc1cc2c(c(=O)o1)C=C1CC[C@H]([C@@H](C)Cn3cnc4cnc(N)nc43)C[C@@H]1O2	6.07	–
COc1ccc(Cn2c(C)cc3c(c2=O)C=C2CC[C@H]([C@@H](C)Cn4cnc(N)c5ncnc4-5)C[C@@H]2O3)cc1	6.46	–
Cc1cc2c(c(=O)o1)C=C1CC[C@H]([C@@H](C)COc3nccc(N)n3)C[C@@H]1O2	5.53	–
Cc1cc2c(c(=O)o1)C=C1CC[C@H]([C@@H](C)CSc3ncccn3)C[C@@H]1O2	5.86	–
Cc1cc2c(c(=O)o1)C=C1CC[C@H]([C@@H](C)Cn3cc(C)c(=O)[nH]c3=O)C[C@@H]1O2	5.16	–
C=C(C)[C@H]1CCc2cc3c(=O)oc(C)cc3nc2C1	–	inactive
Cc1cc2c(c(=O)o1)C=C1CC[C@H]([C@@H](C)Cn3ccc(N)nc3=O)C[C@@H]1O2	–	inactive
Cc1cc2c(c(=O)o1)C=C1CC[C@H]([C@@H](C)Cn3cnc4c(N)ncnc43)C[C@@H]1O2	5.52	–
CC(=O)Nc1nc2c(ncn2C[C@H](C)[C@H]2CCC3=Cc4c(cc(C)oc4=O)O[C@H]3C2)c(=O)[nH]1	–	inactive
Cc1cc2c(c(=O)o1)C=C1CC[C@H]([C@@H](C)Cn3cnc(N)c4ncnc3-4)C[C@@H]1O2	6.51	–
C=C(C)[C@@H]1CCc2cnc3cc(C)oc(=O)c3c2C1	5.60	–
C=C(Cn1cnc(N)c2ncnc1-2)[C@H]1CCC2=Cc3c(cc(C)oc3=O)O[C@H]2C1	5.71	–
C=C(C)[C@H]1CCC2=Cc3c(cc(C)n(Cc4ccc(OC)cc4)c3=O)O[C@H]2C1	5.90	–
